Test results published in ChEMBL document CHEMBL3826916, “Synthesis and potent antiprotozoal activity of mono/di amidino 2-anilinobenzimidazoles versus Plasmodium falciparum and Trypanosoma brucei rhodesiense” (Bioorg Med Chem, 2016).

Legend:
[1] = Selectivity index, ratio of IC50 for rat L6 cells to IC50 for bloodstream forms of Trypanosoma brucei rhodesiense STIB 900; format: toxicity, cell-based; conditions: read-out: Ratio IC50
[2] = tested on: Plasmodium falciparum; assay: Antiplasmodial activity against chloroquine and pyrimethamine resistant Plasmodium falciparum K1 infected in human erythrocytes after 48 hrs by [3H]hypoxanthine incorporation assay; format: functional, organism-based
[3] = Selectivity index, ratio of IC50 for rat L6 cells to IC50 for chloroquine and pyrimethamine resistant Plasmodium falciparum K1 infected in human erythrocytes; format: toxicity, cell-based; conditions: read-out: Ratio IC50
[4] = tested on: L6; assay: Cytotoxicity against rat L6 cells by alamar blue assay; format: cell-based
[5] = tested on: Trypanosoma brucei rhodesiense; assay: Antiparasitic activity against bloodstream forms of Trypanosoma brucei rhodesiense STIB 900 assessed as growth inhibition after 72 hrs by resazurin assay; format: functional, organism-based; conditions: STIB 900, 72 h

Row | Compound | selectivity ratio [1] | IC50 [2] | selectivity ratio [3] | IC50 [4] | IC50 [5]
1 | CC(C)NC(=N)c1ccc(Nc2nc3cc(C(=N)NC(C)C)ccc3[nH]2)cc1 | 4000 | 0.164 µM | 660 | 108 µM | 0.027 µM
2 | N=C(N)c1ccc2[nH]c(Nc3ccc(Cl)c(Cl)c3)nc2c1 | 1.8 | 0.138 µM | 280 | 39.1 µM | 21.8 µM
3 | N=C(N)c1ccc(Nc2nc3ccccc3[nH]2)cc1 | 7.7 | 3.29 µM | 37 | 123 µM | 15.8 µM
4 | N=C(N)c1ccc2[nH]c(Nc3ccccc3)nc2c1 | 4.3 | 5.46 µM | 43 | 237 µM | 54.7 µM
5 | N=C(N)c1ccc(Nc2nc3cc(C(=N)N)ccc3[nH]2)cc1 | 22600 | 0.0675 µM | 1560 | 105 µM | 0.00466 µM
6 | N=C(N)c1ccc2[nH]c(Nc3ccc(Cl)cc3)nc2c1 | 2.4 | 0.688 µM | 60 | 41.6 µM | 17 µM
7 | Cc1cc2[nH]c(Nc3ccc(C(=N)N)cc3)nc2cc1Cl | 1.1 | 0.795 µM | 29 | 23.2 µM | 20.7 µM
8 | N=C(NC1CCCCC1)c1ccc(Nc2nc3cc(C(=N)NC4CCCCC4)ccc3[nH]2)cc1 | 12500 | 0.0459 µM | 1390 | 63.7 µM | 0.0051 µM
9 | N=C(N)c1ccc(Nc2nc3cc(C(F)(F)F)ccc3[nH]2)cc1 | 2 | 0.853 µM | 49 | 41.4 µM | 20.9 µM
10 | CCC(C)NC(=N)c1ccc(Nc2nc3cc(C(=N)NC(C)CC)ccc3[nH]2)cc1 (stereo not given) | 2060 | 0.294 µM | 320 | 93.6 µM | 0.0455 µM
11 | CC(C)CNC(=N)c1ccc(Nc2nc3cc(C(=N)NCC(C)C)ccc3[nH]2)cc1 | 8880 | 0.0913 µM | 925 | 84.4 µM | 0.0095 µM
12 | N=C(N)c1ccc(Nc2nc3cc(Cl)ccc3[nH]2)cc1 | 2.4 | 0.877 µM | 53 | 46.4 µM | 19.6 µM
